# Laboratory results reported in PubChem BioAssay AID1918999 (Molecular Pharmacology Branch, DTP, NCI, 2023).
# System: 556581-035-R-J1-PDC complex spheroid growth
# Assay: Anticancer human tumor 556581-035-R-J1-PDC patient-derived ovarian carcinoma cell line growth inhibition [AhR]
# Details: for IC50: curve of first compound; for viability, T/C: stronger effect = lower value
# Summary of the method: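 Complex tumor spheroids co-cultured with HUVEC and human MSC stroma; AhR antagonists tested in combination with standard-of-care and investigational agents. Top concentration at or near clinical Cmax (else 10 microM), half-log dilutions; growth expressed as percent test/control.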
# 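For viability, T/C in this document: compound exposure lasted 7 days; 100% = DMSO vehicle control growth.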
compound,measurement,setting,value
CC1(C)CCC(CN2CCN(c3ccc(C(=O)NS(=O)(=O)c4ccc(NCC5CCOCC5)c([N+](=O)[O-])c4)c(Oc4cnc5[nH]ccc5c4)c3)CC2)=C(c2ccc(Cl)cc2)C1 + CC(CO)NC(=O)c1cc(-c2ccc(Cl)cc2)nn(-c2cnn(C)c2)c1=O,IC50,second compound 0.1 µM,> 10 µM
same,IC50,second compound 0.316 µM,> 10 µM
same,IC50,second compound 1 µM,> 10 µM
same,IC50,second compound 3.16 µM,> 10 µM
same,IC50,second compound 10 µM,> 10 µM
same,"viability, T/C","second compound 0.1 µM, first compound 0.0316 µM",99.2%
same,"viability, T/C","second compound 0.1 µM, first compound 0.1 µM",111%
same,"viability, T/C","second compound 0.1 µM, first compound 0.316 µM",114%
same,"viability, T/C","second compound 0.1 µM, first compound 1 µM",90.7%
same,"viability, T/C","second compound 0.1 µM, first compound 3.16 µM",96.5%
same,"viability, T/C","second compound 0.1 µM, first compound 10 µM",90.1%
same,"viability, T/C","second compound 0.316 µM, first compound 0.0316 µM",99.3%
same,"viability, T/C","second compound 0.316 µM, first compound 0.1 µM",116%
same,"viability, T/C","second compound 0.316 µM, first compound 0.316 µM",102%
same,"viability, T/C","second compound 0.316 µM, first compound 1 µM",97.2%
same,"viability, T/C","second compound 0.316 µM, first compound 3.16 µM",98.6%
same,"viability, T/C","second compound 0.316 µM, first compound 10 µM",82.8%
same,"viability, T/C","second compound 1 µM, first compound 0.0316 µM",117%
same,"viability, T/C","second compound 1 µM, first compound 0.1 µM",117%
same,"viability, T/C","second compound 1 µM, first compound 0.316 µM",105%
same,"viability, T/C","second compound 1 µM, first compound 1 µM",106%
same,"viability, T/C","second compound 1 µM, first compound 3.16 µM",103%
same,"viability, T/C","second compound 1 µM, first compound 10 µM",79.5%
same,"viability, T/C","second compound 3.16 µM, first compound 0.0316 µM",104%
same,"viability, T/C","second compound 3.16 µM, first compound 0.1 µM",106%
same,"viability, T/C","second compound 3.16 µM, first compound 0.316 µM",105%
same,"viability, T/C","second compound 3.16 µM, first compound 1 µM",122%
same,"viability, T/C","second compound 3.16 µM, first compound 3.16 µM",94%
same,"viability, T/C","second compound 3.16 µM, first compound 10 µM",73%
same,"viability, T/C","second compound 10 µM, first compound 0.0316 µM",109%
same,"viability, T/C","second compound 10 µM, first compound 0.1 µM",115%
same,"viability, T/C","second compound 10 µM, first compound 0.316 µM",115%
same,"viability, T/C","second compound 10 µM, first compound 1 µM",122%
same,"viability, T/C","second compound 10 µM, first compound 3.16 µM",99%
same,"viability, T/C","second compound 10 µM, first compound 10 µM",85.7%
CCN(c1cc(-c2ccc(CN3CCOCC3)cc2)cc(C(=O)NCc2c(C)cc(C)[nH]c2=O)c1C)C1CCOCC1 + CC(CO)NC(=O)c1cc(-c2ccc(Cl)cc2)nn(-c2cnn(C)c2)c1=O,IC50,second compound 0.1 µM,> 3 µM
same,IC50,second compound 0.316 µM,> 3 µM
same,IC50,second compound 1 µM,> 3 µM
same,IC50,second compound 3.16 µM,> 3 µM
same,IC50,second compound 10 µM,> 3 µM
same,"viability, T/C","second compound 0.1 µM, first compound 0.00949 µM",103%
same,"viability, T/C","second compound 0.1 µM, first compound 0.03 µM",102%
same,"viability, T/C","second compound 0.1 µM, first compound 0.0949 µM",94.7%
same,"viability, T/C","second compound 0.1 µM, first compound 0.3 µM",94.7%
same,"viability, T/C","second compound 0.1 µM, first compound 0.949 µM",102%
same,"viability, T/C","second compound 0.1 µM, first compound 3 µM",91.8%
same,"viability, T/C","second compound 0.316 µM, first compound 0.00949 µM",102%
same,"viability, T/C","second compound 0.316 µM, first compound 0.03 µM",91.2%
same,"viability, T/C","second compound 0.316 µM, first compound 0.0949 µM",96.5%
same,"viability, T/C","second compound 0.316 µM, first compound 0.3 µM",92.2%
same,"viability, T/C","second compound 0.316 µM, first compound 0.949 µM",108%
same,"viability, T/C","second compound 0.316 µM, first compound 3 µM",91.8%
same,"viability, T/C","second compound 1 µM, first compound 0.00949 µM",106%
same,"viability, T/C","second compound 1 µM, first compound 0.03 µM",106%
same,"viability, T/C","second compound 1 µM, first compound 0.0949 µM",117%
same,"viability, T/C","second compound 1 µM, first compound 0.3 µM",105%
same,"viability, T/C","second compound 1 µM, first compound 0.949 µM",87.8%
same,"viability, T/C","second compound 1 µM, first compound 3 µM",106%
same,"viability, T/C","second compound 3.16 µM, first compound 0.00949 µM",106%
same,"viability, T/C","second compound 3.16 µM, first compound 0.03 µM",99.7%
same,"viability, T/C","second compound 3.16 µM, first compound 0.0949 µM",90.7%
same,"viability, T/C","second compound 3.16 µM, first compound 0.3 µM",95%
same,"viability, T/C","second compound 3.16 µM, first compound 0.949 µM",100%
same,"viability, T/C","second compound 3.16 µM, first compound 3 µM",87.9%
same,"viability, T/C","second compound 10 µM, first compound 0.00949 µM",94.9%
same,"viability, T/C","second compound 10 µM, first compound 0.03 µM",101%
same,"viability, T/C","second compound 10 µM, first compound 0.0949 µM",113%
same,"viability, T/C","second compound 10 µM, first compound 0.3 µM",94.6%
same,"viability, T/C","second compound 10 µM, first compound 0.949 µM",89.8%
same,"viability, T/C","second compound 10 µM, first compound 3 µM",94.8%
